Test results as given in patent US20100179130A1, “USE OF PIPERINE AND DERIVATIVES THEREOF FOR THE THERAPY OF NEUROLOGICAL CONDITIONS” (SYNGIS Bioscience GmbH & Co. KG, priority 2007, published 2010).

How the values were obtained:
mouse SCI model = assay: Mouse spinal cord injury (SCI) model, Basso-Mouse-Score; assay type: in vivo; conditions: i.p. 10 mg/kg, then 20 mg/kg on two days, plus 1 mg/kg daily s.c. over 2 weeks; day 1-35
Protocol: Female mice at 2 months of age were anesthetized using inhalation anesthesia (1% Halothane/30% N20/70% O2). After laminectomy at the vertebral level Th8/9, the spinal cord was dorsally transected to ˜80% with fine iridectomy scissors leaving a ventral tissue bridge intact as previously described (Demjen et al. Nat Med 2004; 10: 389-395). The animals were treated postoperatively with gentamycin (i.p., 1 mg/kg bodyweight) once a day for 7 days. Bladders were emptied manually until restoration of autonomic bladder function. In the treatment experiment, C57BL/6 wild-type mice (n=20) received i.p. piperine during the operation (10 mg/kg bodyweight) and on the two following days (20 mg/kg bodyweight, each time. Further, the mice received a daily dose of 1 mg/kg bodyweight by continuous s.c. application over 2 weeks via an osmotic minipump (Alzet). Control group (sham, n=20) was treated accordingly but received only vehicle (20% Solutol-HS15). Piperine was solved in 20% Solutol-HS15 as described in Example 7. All animal experiments were approved by the ethical authorities. As a measurement for the outcome the Basso-Mouse-Score (BMS) (Basso et al. J Neurotrauma 2006; 23: 635-659) was determined at day 1, 7, 14, 21, 28, and 35 after operation. The BMS scores a value between 0 (no movement of the hind limbs) to 9 (healthy mouse).

adult rats = assay: Neurogenesis in vivo, BrdU/NeuN co-staining of hippocampal slices; design: species or system rat; conditions: 6 weeks
Protocol: Male adult rats were divided in three groups. The rats were treated i.p. with 20% Solutol-HS15 (BASF SE) as vehicle (control group, n=11), 1 mg/kg bodyweight piperine (piperine I group, n=14 with total dose of 5 mg/kg piperin), or 10 mg/kg bodyweight piperine (piperine II group, n=13 with total dose of 50 mg/kg) once daily for 5 consecutive days. Piperine was solved in 20% Solutol-HS15 as described in Example 7. Further, all animals received BrdU (i.p. 50 mg/kg bodyweight) twice daily during these initial 5 days. BrdU is stably incorporated by dividing cells and therefore a suitable tool for the labelling of cells that divided within an experimentally defined time-window (i.e. the time during which BrdU was administered, which in the present example corresponds to the time during which Piperine was administered (Bagley et al BMC Neurosci. 2007; 8:92). The animals were sacrificed 6 weeks after the beginning of the treatment. Brains were removed rapidly, fixed with 4% paraformaldehyd and stored in 4% paraformaldehyd for further immunohistochemical analysis. 10 μm slices of the hippocampal area were generated and stained with sheep-anti-BrdU antibodies (Abcam, 1:100) and mouse-anti-NeuN antibodies (Chemicon, 1:500). Subsequently, the slices were stained for fluorescent detection with anti-sheep-biotin plus streptavidin-Cy2 and anti-mouse-Alexa555 (Molecular Probes, Fisher). […]

[1] = oral, approximately 5 to 20 mg daily, human patients; cited from earlier work
[2] = in vivo; cited from earlier work
[3] = cited from earlier work

For `O=C(/C=C/C=C/c1ccc2c(c1)OCO2)N1CCCCC1` [Piperine, (E,E)-1-[5-(1,3-benzodioxol-5-yl)-1-oxo-2,4-pentadienyl]piperidine], the “outcome of experimental SCI (Basso-Mouse-Score)” value (mouse SCI model) was “clearly improved the outcome”, the “neurogenesis (NeuN/BrdU-positive cells per slice) compared to the control level” value (adult rats; 1 mg/kg i.p. once daily for 5 days (total 5 mg/kg)) was “clearly elevated levels of neurogenesis” and the “neurogenesis (NeuN/BrdU-positive cells per slice) compared to the control level” value (adult rats; 10 mg/kg i.p. once daily for 5 days (total 50 mg/kg)) was “clearly elevated levels of neurogenesis”. For the same molecule, the tolerability [1] was “well tolerated”, the “time of peak blood levels after dosing” value [2] was 1 to 2 h and the solubility in water [3] was “essentially insoluble in water”.
